# Results reported in BindingDB's records for doi:10.1016/j.bmcl.2005.03.049 (Abbott Laboratories, 2005).
# Target: Protein farnesyltransferase subunit beta/geranylgeranyltransferase type-1 subunit alpha (Bos taurus, UniProt P29702+P49355)
# Assay: FTase Activity Assay
# Details: pH 7.5; 37 °C
# Procedure: The in vitro activity of compounds inhibiting FTase was determined by measuring the transfer of [3H]-FPP to substrate Ha-Ras-CVLS. The incorporated radioactivity was quantified by scintillation counting.
row,IC50,SMILES
1,200 nM,Cn1cncc1C(O)(c1ccc(Cl)cc1)c1ccc2ccn(-c3cccc4ccccc34)c2c1 (configuration not stated) [(4-chlorophenyl)(1-methyl-1H-imidazol-5-yl)[1-(naphthalen-1-yl)-1H-indol-6-yl]methanol]
2,36 nM,Cn1cncc1C(O)(c1ccc(Cl)cc1)c1ccc2ccn(-c3cccc(Cl)c3)c2c1 (configuration not stated) [(4-chlorophenyl)[1-(3-chlorophenyl)-1H-indol-6-yl](1-methyl-1H-imidazol-5-yl)methanol]
